The values below come from DBAASP.

For orientation: MIC means the lowest concentration that inhibits growth of the organism. A low value points to inhibition by little substance.

Among the test systems are Vibrio cholerae; Escherichia coli MG1655; Botrytis cinerea; Fusarium solani; Cladosporium herbarum; Alternaria alternata.
Test in all cases: ≥ marks a high value that may be exact or a test limit, other limits are often not marked, values filed in µg/mL are converted to µM
Assay [1] has as its system Pseudomonas aeruginosa ATCC 27853.
The subject of assay [2] is Staphylococcus aureus MTCC 9542.
The subject of assay [3] is Streptococcus pneumoniae BCRC 10794.
For assay [4], the system named is Staphylococcus aureus BCRC 10780.
Assay [5] concerns Burkholderia cepacia J2540.
The test system of assay [6] is Escherichia coli NCTC 10418.
Assay [7] relates to Candida albicans NCPF 1467.
In assay [8] the test system is Staphylococcus aureus NCTC 10788.
Assay [9] relates to Escherichia coli IFO 12734.
Assay [10] has as its system Bacillus subtilis IFO 3134.
The test system of assay [11] is Staphylococcus aureus IFO 12732.
For assay [12], the system named is Pseudomonas aeruginosa IFO 12582.
In assay [13] the test system is Clavibacter michiganensis subsp. michiganensis DSM 46294.
The subject of assay [14] is Pseudomonas corrugata DSM 7228.
In assay [15] the test system is Pseudomonas syringae pv. syringae DSM 10604.
Assay [16] relates to Xanthomonas vesicatoria DSM 50861.
Assay [17] relates to Pseudomonas syringae pv. tomato DC3000.
Assay [18] has as its system Staphylococcus aureus ATCC 6538.
Assay [19] has as its system Pseudomonas aeruginosa ATCC 9027.
Assay [20] has as its system Pectobacterium carotovorum subsp. carotovorum DSM 30168.
Assay [21] relates to Micrococcus luteus ATCC 9341.
The test system of assay [22] is Bacillus subtilis KCTC 1918.
Assay [23] relates to Salmonella typhimurium KCTC 1926.
For assay [24], the system named is Escherichia coli KCTC 1682.
Assay [25] has as its system Pseudomonas aeruginosa KCTC 1637.
For assay [26], the system named is Streptococcus pyogenes KCTC 3096.
The subject of assay [27] is Staphylococcus aureus KCTC 1621.

Values after ≈ are worked out from the molar mass of the structure shown.

Turning to `CC[C@H](C)[C@@H]1NC(=O)[C@H](CCCCN)NC(=O)[C@@H](NC(=O)[C@H](CC(C)C)NC(=O)[C@@H](NC(=O)[C@H](CCC(N)=O)NC(=O)[C@@H]2CCCN2C(=O)[C@H](CC(C)C)NC(=O)[C@H](Cc2ccccc2)NC(=O)[C@H](CC(N)=O)NC(=O)[C@H](C)NC(=O)[C@H](C)NC(=O)[C@H](CC(C)C)NC(=O)CNC(=O)[C@H](C)N)[C@@H](C)CC)CSSC[C@@H](C(N)=O)NC(=O)[C@H](CCCCN)NC(=O)[C@H](CCCN=C(N)N)NC(=O)[C@H](C)NC1=O` [AGLAANFLPQILCKIARKC], the MIC in assay [1] was more than 49.2 µM; in the assay with Vibrio cholerae, 12.3 µM (≈ 25 µg/mL); in assay [2], 24.6 µM (≈ 49.9 µg/mL); against Escherichia coli MG1655 it was 24.6 µM (≈ 49.9 µg/mL).

Turning to `CSCC[C@H](NC(=O)[C@H](C)NC(=O)CNC(=O)[C@H](C)NC(=O)[C@H](Cc1cnc[nH]1)NC(=O)[C@H](Cc1ccccc1)NC(C)=O)C(N)=O` [FHAGAM], the MIC in assay [3] and in assay [4] was not below 158 µM throughout.

Compound `CC[C@H](C)[C@H](NC(=O)CNC(=O)[C@H](CCCN=C(N)N)NC(=O)[C@H](CC(C)C)NC(=O)[C@H](Cc1ccccc1)NC(=O)[C@H](CC(=O)O)NC(=O)[C@H](CCCCN)NC(=O)[C@@H](NC(=O)[C@H](CCCN=C(N)N)NC(=O)[C@H](CCC(N)=O)NC(=O)[C@@H](NC(=O)[C@@H](NC(=O)[C@H](CCCN=C(N)N)NC(=O)[C@H](CCCCN)NC(=O)[C@@H](N)Cc1ccccc1)[C@@H](C)CC)C(C)C)[C@@H](C)CC)C(=O)NCC(=O)N[C@@H](CCCCN)C(=O)N[C@@H](Cc1ccccc1)C(=O)N[C@@H](CC(C)C)C(=O)N[C@@H](Cc1cnc[nH]1)C(=O)N[C@@H](CO)C(=O)N[C@@H](C)C(=O)N[C@@H](CCCCN)C(=O)N[C@@H](CCCCN)C(=O)N[C@@H](Cc1ccccc1)C(=O)O` [FKRIVQRIKDFLRGIGKFLHSAKKF] registered an MIC in [5] of 10.3 µM (≈ 31.3 µg/mL).

Turning to `CC[C@H](C)[C@H](NC(=O)CNC(=O)[C@H](CO)NC(=O)[C@H](C)NC(=O)[C@@H](NC(=O)[C@H](Cc1cnc[nH]1)NC(=O)[C@@H]1CCCN1C(=O)[C@H](CC(C)C)NC(=O)[C@H](CC(C)C)NC(=O)[C@H](CO)NC(=O)[C@H](CC(C)C)NC(=O)[C@@H](N)Cc1ccccc1)[C@@H](C)CC)C(=O)N[C@@H](C)C(=O)N[C@@H](CO)C(=O)N[C@@H](CC(C)C)C(=O)N[C@H](C(=O)N[C@@H](CO)C(=O)N[C@@H](CCCCN)C(=O)N[C@@H](Cc1ccccc1)C(N)=O)C(C)C` [FLSLLPHIASGIASLVSKF], the MIC in [6] was not below 200 µM; in [7], 15 µM (≈ 30 µg/mL); in assay [8], 5 µM (≈ 10 µg/mL).

In the case of `CC[C@H](C)[C@H](NC(=O)[C@H](C)NC(=O)[C@@H]1CCCN1C(=O)[C@@H](NC(=O)[C@@H](NC(=O)[C@H](CCCCN)NC(=O)[C@H](C)NC(=O)[C@H](C)NC(=O)[C@@H](NC(=O)[C@H](CCCCN)NC(=O)[C@H](C)NC(=O)[C@H](CC(C)C)NC(=O)[C@@H](NC(=O)CNC(=O)[C@H](Cc1ccccc1)NC(=O)[C@H](CC(C)C)NC(=O)CN)C(C)C)C(C)C)C(C)C)C(C)C)C(=O)N[C@@H](C)C(=O)N[C@@H](CCC(=O)O)C(=O)N[C@@H](Cc1cnc[nH]1)C(=O)N[C@@H](Cc1ccccc1)C(N)=O` [GLFGVLAKVAAKVVPAIAEHF], the MIC in assay [9] was 16 µM (≈ 34.2 µg/mL); in assay [10], 8 µM (≈ 17.1 µg/mL); in assay [11], 8 µM (≈ 17.1 µg/mL); in assay [12], not below 32 µM.

`CC[C@H](C)[C@H](N)C(=O)N[C@@H](CC(C)C)C(=O)N1CCC[C@H]1C(=O)N[C@@H](Cc1c[nH]c2ccccc12)C(=O)N[C@@H](CCCCN)C(=O)N[C@@H](Cc1c[nH]c2ccccc12)C(=O)N1CCC[C@H]1C(=O)N[C@@H](Cc1c[nH]c2ccccc12)C(=O)N[C@@H](Cc1c[nH]c2ccccc12)C(=O)N1CCC[C@H]1C(=O)N[C@@H](Cc1c[nH]c2ccccc12)C(=O)N[C@@H](CCCNC(=N)N)C(=O)N[C@@H](CCCNC(=N)N)C(=O)O` [ILPWKWPWWPWRR]: the MIC was 0.524 µM (≈ 1 µg/mL) in assay [13]; not below 33.6 µM in assay [14]; not below 33.6 µM in [15]; 1.05 µM (≈ 2 µg/mL) in [16]; not below 33.6 µM in assay [17]; 5.24 µM (≈ 10 µg/mL) in assay [18]. Further, the MIC was more than 105 µM in assay [19]; 16.8 µM (≈ 32 µg/mL) with Botrytis cinerea; 4.19 µM (≈ 8 µg/mL) in the assay on Fusarium solani; not below 33.6 µM in [20]; not below 33.6 µM against Cladosporium herbarum; 16.8 µM (≈ 32 µg/mL) against Alternaria alternata. In assay [21], this compound displayed an MIC of 1.6 µM (≈ 3.05 µg/mL).

Turning to `CC[C@H](C)[C@H](NC(=O)[C@H](CCSC)NC(=O)[C@H](CCCCN)NC(=O)CNC(=O)[C@H](C)NC(=O)[C@H](Cc1cnc[nH]1)NC(=O)[C@H](Cc1ccccc1)NC(=O)[C@H](CC(C)C)NC(=O)CNC(=O)[C@H](CCCCN)NC(C)=O)C(=O)N[C@@H](Cc1cnc[nH]1)C(N)=O` [KGLFHAGKMIH], the minimum inhibitory concentration (MIC) in assay [3] and in [4] was not below 80.7 µM throughout.

Turning to `CC[C@H](C)[C@H](NC(=O)[C@H](CCCCN)NC(=O)[C@H](CCCCN)NC(=O)[C@H](Cc1ccccc1)NC(=O)[C@H](CC(C)C)NC(=O)[C@H](CCCCN)NC(=O)[C@H](Cc1c[nH]c2ccccc12)NC(=O)[C@@H](N)CCCCN)C(=O)N[C@@H](CCCCN)C(=O)N[C@@H](Cc1ccccc1)C(=O)N[C@@H](CC(C)C)C(=O)N[C@@H](Cc1cnc[nH]1)C(=O)N[C@@H](CO)C(=O)N[C@@H](C)C(=O)N[C@@H](CCCCN)C(=O)N[C@@H](CCCCN)C(=O)N[C@@H](Cc1ccccc1)C(N)=O` [KWKLFKKIKFLHSAKKF], the MIC in assay [22] was determined as 1.56 µM (≈ 3.4 µg/mL); in assay [23] it was 0.78 µM (≈ 1.7 µg/mL); in [24], 6.25 µM (≈ 13.6 µg/mL); in assay [25] it was 1.56 µM (≈ 3.4 µg/mL); in assay [26] it was 0.78 µM (≈ 1.7 µg/mL); in assay [27], 3.12 µM (≈ 6.8 µg/mL).

Regarding `CC[C@H](C)[C@H](NC(=O)[C@H](CC(C)C)NC(=O)[C@@H](N)CC(C)C)C(=O)N[C@@H](C)C(=O)N[C@@H](C)C(=O)N[C@@H](Cc1ccccc1)C(=O)N[C@@H](CCCCN)C(=O)N[C@@H](CCCCN)C(=O)N[C@@H](CC(C)C)C(=O)N[C@H](C(=O)N[C@@H](CCCCN)C(=O)N[C@@H](CCCCN)C(N)=O)C(C)C` [LLIAAFKKLVKK], the minimal inhibitory concentration (MIC) was 14.6 µM (≈ 20 µg/mL) in [13]; 29.2 µM (≈ 40 µg/mL) in assay [14]; 29.2 µM (≈ 40 µg/mL) in [15]; 29.2 µM (≈ 40 µg/mL) in assay [16]; 29.2 µM (≈ 40 µg/mL) in assay [17]; not below 72.9 µM in the assay with Botrytis cinerea. Besides, the MIC in [20] was 29.2 µM (≈ 40 µg/mL); in the assay with Cladosporium herbarum, not below 72.9 µM; with Alternaria alternata, not below 72.9 µM.
